The target in this test is PI3-kinase p110-alpha/p85-alpha (Homo sapiens, UniProt P42336). In words: Biochemical Assay: PI3KA_FL: Genes encoding for full length p110alpha and p85alpha subunits of PI3Kalpha complex were subcloned from existing constructs into pFASTBAC Dual vector (Life Technologies, Carlsbad, Calif.) using standard cloning procedures. Gene encoding p110alpha subunit was subcloned into polyhedrine promoter while gene encoding p85alpha subunit was subcloned into p10 promoter. Additionally, sequence encoding for histidine tag and Tobacco Etch Virus ("TEV") cleavage site preceded p110alpha ORF (Open Reading Frame). The biochemical assays of kinase activity of full-length PI3Kalpha (full-length p110alpha/p85a) or truncated PI3Kalpha (p110alpha/iSH2 p85a) were conducted using a fluorescence polarization format similar to the procedure of Yuan J., et al., (2011) PF-04691502, a Potent and Selective Oral Inhibitor of PI3K and mTOR Kinases with Antitumor Activity, Mol Cancer Ther. 10, 2189-2199. The enzymatic reactions were conducted in 50 uL volumes in 96-well plates. The test is classed as protein-complex assay. (In fluorescence polarisation assays a small probe gives low polarisation when free and higher when bound to something large.)
Chain of PI3-kinase p110-alpha/p85-alpha (P27986 whole entry, the tested form may be a part): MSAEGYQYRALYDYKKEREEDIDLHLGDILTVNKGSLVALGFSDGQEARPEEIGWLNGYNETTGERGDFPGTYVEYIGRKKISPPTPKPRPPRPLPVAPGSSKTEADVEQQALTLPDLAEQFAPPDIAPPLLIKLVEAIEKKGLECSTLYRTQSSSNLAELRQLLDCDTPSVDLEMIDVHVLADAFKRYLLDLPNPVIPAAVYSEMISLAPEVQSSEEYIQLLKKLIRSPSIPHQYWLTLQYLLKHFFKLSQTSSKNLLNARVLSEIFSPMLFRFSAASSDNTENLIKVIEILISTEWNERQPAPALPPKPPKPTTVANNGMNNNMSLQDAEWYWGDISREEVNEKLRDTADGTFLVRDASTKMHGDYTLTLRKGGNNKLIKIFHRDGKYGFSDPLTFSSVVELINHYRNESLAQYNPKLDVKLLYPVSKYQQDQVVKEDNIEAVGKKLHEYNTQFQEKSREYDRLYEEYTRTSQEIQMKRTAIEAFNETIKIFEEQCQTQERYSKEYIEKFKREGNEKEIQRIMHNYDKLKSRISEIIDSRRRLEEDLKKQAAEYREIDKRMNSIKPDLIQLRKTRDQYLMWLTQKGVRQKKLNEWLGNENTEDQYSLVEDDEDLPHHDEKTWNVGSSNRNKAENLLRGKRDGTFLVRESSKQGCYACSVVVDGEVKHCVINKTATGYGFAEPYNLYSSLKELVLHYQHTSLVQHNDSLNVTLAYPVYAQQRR
Chain of PI3-kinase p110-alpha/p85-alpha (P42336 whole entry, the tested form may be a part): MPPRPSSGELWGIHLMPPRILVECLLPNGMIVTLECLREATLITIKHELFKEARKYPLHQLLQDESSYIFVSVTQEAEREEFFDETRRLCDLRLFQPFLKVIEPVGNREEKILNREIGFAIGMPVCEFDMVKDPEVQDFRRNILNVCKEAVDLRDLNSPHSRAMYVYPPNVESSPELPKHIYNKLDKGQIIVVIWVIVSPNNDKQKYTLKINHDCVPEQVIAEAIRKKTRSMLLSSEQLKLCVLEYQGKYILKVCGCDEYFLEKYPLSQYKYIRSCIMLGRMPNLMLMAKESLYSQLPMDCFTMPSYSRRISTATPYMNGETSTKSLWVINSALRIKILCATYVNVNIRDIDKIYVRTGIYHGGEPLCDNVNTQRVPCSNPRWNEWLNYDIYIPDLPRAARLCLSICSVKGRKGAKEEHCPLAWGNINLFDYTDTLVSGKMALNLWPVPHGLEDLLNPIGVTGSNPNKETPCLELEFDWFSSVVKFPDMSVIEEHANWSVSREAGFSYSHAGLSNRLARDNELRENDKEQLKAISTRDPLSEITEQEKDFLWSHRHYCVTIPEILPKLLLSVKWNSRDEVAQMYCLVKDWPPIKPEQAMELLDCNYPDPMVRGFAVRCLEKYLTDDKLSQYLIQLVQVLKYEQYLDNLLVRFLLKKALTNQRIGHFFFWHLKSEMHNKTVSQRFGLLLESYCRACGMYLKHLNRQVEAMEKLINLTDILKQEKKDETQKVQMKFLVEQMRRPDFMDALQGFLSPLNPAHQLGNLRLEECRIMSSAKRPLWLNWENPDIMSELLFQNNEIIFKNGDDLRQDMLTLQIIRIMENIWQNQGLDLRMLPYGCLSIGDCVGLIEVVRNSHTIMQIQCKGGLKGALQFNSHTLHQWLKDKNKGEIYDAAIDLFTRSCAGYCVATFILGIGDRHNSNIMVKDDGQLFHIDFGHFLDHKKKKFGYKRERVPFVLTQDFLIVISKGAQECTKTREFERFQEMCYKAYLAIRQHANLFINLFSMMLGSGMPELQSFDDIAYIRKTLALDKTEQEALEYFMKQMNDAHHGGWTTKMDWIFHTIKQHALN

What is called Ki is the dissociation constant of the complex between target and ligand, obtained from inhibition or displacement. Take `CC(=O)N[C@H]1C(C)(C)[C@H](N2CCc3c(-c4cnc(N)nc4)nc(N4CCOCC4)nc32)C1(C)C`: the Ki worked out at 1.14 nM.

(Values after ChEMBL document CHEMBL3886531, “Dihydropyrrolopyrimidine derivatives” (2016).)
